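Assay format: 96-well plates, 48-hour exposure. Abbreviation: GI50, concentration required for 50% inhibition of growth.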 Active and inactive are the calls of the source. No stated cut-off is given here; in the data, active = GI50 up to about 1.1 µM and inactive = higher.
Experiments:
Assay in all cases: NCI anticancer screen, dose series, 48 h
[1] = system: MDA-MB-435
[2] = system: EKVX
[3] = system: COLO 205
[4] = system: NCI-H522
[5] = system: MCF7
[6] = system: NCI-H226
[7] = system: NCI-H460
[8] = system: SF-268
[9] = system: OVCAR-8
[10] = system: LOX IMVI
[11] = system: Malme-3M
[12] = system: RPMI-8226
[13] = system: M14
[14] = system: HT-29
[15] = system: OVCAR-4
[16] = system: SNB-75
[17] = system: HOP-62
[18] = system: UACC-257
[19] = system: UO-31
[20] = system: KM12
[21] = system: SF-295
[22] = system: OVCAR-3
[23] = system: HCC 2998
[24] = system: OVCAR-5
[25] = system: PC-3
[26] = system: HOP-92
[27] = system: NCI/ADR-RES
[28] = system: MDA-N
[29] = system: HCT-116
[30] = system: MOLT-4
[31] = system: NCI-H23
[32] = system: SN12C
[33] = system: T47D
[34] = system: HCT-15
[35] = system: CAKI-1
[36] = system: ACHN
[37] = system: HL-60
[38] = system: SNB-19
[39] = system: BT-549
[40] = system: SK-MEL-28
[41] = system: U-251
[42] = system: DU-145
[43] = system: A498
[44] = system: SK-MEL-2
[45] = system: RXF 393
[46] = system: TK-10
[47] = system: Hs-578T
[48] = system: CCRF-CEM
[49] = system: SF-539
[50] = system: A549
[51] = system: MDA-MB-231
[52] = system: SW-620
[53] = system: SR
[54] = system: 786-0
[55] = system: SK-OV-3
[56] = system: SK-MEL-5
[57] = system: IGROV-1
[58] = system: UACC-62
[59] = system: K562

CN(C)CCn1c(=O)c2ccc(NCCCN(C)CCCNc3ccc4c(=O)n(CCN(C)C)c(=O)n5c6ccc([N+](=O)[O-])cc6c(=O)c3c45)c3c(=O)c4cc([N+](=O)[O-])ccc4n(c1=O)c23
GI50 [1]: < 17.3 nM (active) | GI50 [2]: 41.1 nM (active) | GI50 [3]: < 10 nM (active) | GI50 [4]: < 10 nM (active) | GI50 [5]: < 10 nM (active) | GI50 [6]: < 10 nM (active) | GI50 [7]: < 10 nM (active) | GI50 [8]: 16.3 nM (active) | GI50 [9]: < 10 nM (active) | GI50 [10]: < 10 nM (active) | GI50 [11]: 59.4 nM (active) | GI50 [12]: < 10 nM (active) | GI50 [13]: 57 nM (active) | GI50 [14]: < 10 nM (active) | GI50 [15]: < 10 nM (active) | GI50 [16]: < 10 nM (active) | GI50 [17]: < 10 nM (active) | GI50 [18]: 69 nM (active) | GI50 [19]: 12.9 nM (active) | GI50 [20]: < 10 nM (active) | GI50 [21]: 13.6 nM (active) | GI50 [22]: < 33 nM (active) | GI50 [23]: < 10 nM (active) | GI50 [24]: < 37 nM (active) | GI50 [25]: < 10 nM (active) | GI50 [26]: < 35.4 nM (active) | GI50 [27]: 80.2 nM (active) | GI50 [28]: 24.8 nM (active) | GI50 [29]: < 10 nM (active) | GI50 [30]: < 10 nM (active) | GI50 [31]: < 10 nM (active) | GI50 [32]: < 10 nM (active) | GI50 [33]: 96.8 nM (active) | GI50 [34]: < 15 nM | GI50 [35]: < 33 nM (active) | GI50 [36]: < 10 nM (active) | GI50 [37]: < 27 nM (active) | GI50 [38]: < 10 nM (active) | GI50 [39]: 37.6 nM (active) | GI50 [40]: 66.4 nM (active) | GI50 [41]: < 10 nM (active) | GI50 [42]: < 10 nM (active) | GI50 [43]: 47.8 nM (active) | GI50 [44]: 34.6 nM (active) | GI50 [45]: 12.2 nM (active) | GI50 [46]: < 14.3 nM (active) | GI50 [47]: 17.8 nM (active) | GI50 [48]: < 10 nM (active) | GI50 [49]: < 10 nM (active) | GI50 [50]: < 10 nM (active) | GI50 [51]: < 21 nM (active) | GI50 [52]: < 11.2 nM (active) | GI50 [53]: < 10 nM (active) | GI50 [54]: < 10 nM (active) | GI50 [55]: < 25.8 nM (active) | GI50 [56]: < 11.5 nM (active) | GI50 [57]: < 10 nM (active) | GI50 [58]: < 24.6 nM (active) | GI50 [59]: < 10 nM (active)

C[C@]12CC[C@H](O)C[C@@H]1CC[C@@H]1[C@@H]2CC[C@]2(C)[C@@H](c3cc(C(F)(F)F)[nH]n3)CC[C@@H]12
GI50 [1]: 10100 nM (inactive) | GI50 [2]: 10800 nM (inactive) | GI50 [3]: 4130 nM (inactive) | GI50 [4]: > 22500 nM (inactive) | GI50 [5]: 5750 nM (inactive) | GI50 [6]: 14600 nM (inactive) | GI50 [7]: 3180 nM (inactive) | GI50 [8]: > 33000 nM (inactive) | GI50 [9]: 5350 nM (inactive) | GI50 [10]: 6110 nM (inactive) | GI50 [11]: > 37300 nM (inactive) | GI50 [12]: 3960 nM (inactive) | GI50 [13]: 9100 nM (inactive) | GI50 [14]: 4270 nM (inactive) | GI50 [15]: 6640 nM (inactive) | GI50 [16]: 11600 nM (inactive) | GI50 [17]: 7380 nM (inactive) | GI50 [18]: 5690 nM (inactive) | GI50 [19]: 1510 nM (inactive) | GI50 [20]: 10100 nM (inactive) | GI50 [21]: 4230 nM (inactive) | GI50 [22]: 10100 nM (inactive) | GI50 [23]: 15000 nM (inactive) | GI50 [24]: 10500 nM (inactive) | GI50 [25]: 6380 nM (inactive) | GI50 [26]: 2740 nM (inactive) | GI50 [27]: 6320 nM (inactive) | GI50 [28]: 10800 nM (inactive) | GI50 [29]: 3350 nM (inactive) | GI50 [30]: 3950 nM (inactive) | GI50 [31]: 7110 nM (inactive) | GI50 [32]: 7590 nM (inactive) | GI50 [33]: 5260 nM (inactive) | GI50 [34]: 6320 nM | GI50 [35]: 13200 nM (inactive) | GI50 [36]: 7210 nM (inactive) | GI50 [37]: 908 nM (active) | GI50 [38]: 9680 nM (inactive) | GI50 [39]: 8390 nM (inactive) | GI50 [40]: 13100 nM (inactive) | GI50 [41]: 7010 nM (inactive) | GI50 [42]: 10900 nM (inactive) | GI50 [43]: 8590 nM (inactive) | GI50 [44]: 16200 nM (inactive) | GI50 [45]: 4150 nM (inactive) | GI50 [46]: 6070 nM (inactive) | GI50 [47]: > 35600 nM (inactive) | GI50 [48]: 957 nM (active) | GI50 [49]: 7360 nM (inactive) | GI50 [50]: 4800 nM (inactive) | GI50 [51]: 6670 nM (inactive) | GI50 [52]: 12100 nM (inactive) | GI50 [53]: 3870 nM (inactive) | GI50 [54]: 4350 nM (inactive) | GI50 [55]: 13800 nM (inactive) | GI50 [56]: 6820 nM (inactive) | GI50 [57]: 6320 nM (inactive) | GI50 [58]: 14100 nM (inactive) | GI50 [59]: 3250 nM (inactive)

From ChEMBL document CHEMBL1201862, “PubChem BioAssay data set” (2004)
